# Laboratory results published in publication PMC11926786, “Effect of Lipidation on the Structure, Oligomerization, and Aggregation of Glucagon-like Peptide 1” (Bioconjugate Chemistry, 2025).
# “Also recorded” adds a separate entry of the source. Like-named read-outs stand apart in the source and are kept apart here. *1 amine or outer side, *2 acyl side, *3 side chain or, on linkers, in order; H or OH if unused. Where a SMILES comes first, the peptide text is derived from it. Side-chain parts run from the residue outwards. The star is where a group is joined. γGlu = O=C(O)[C@H](CCC(=O)[*:2])N[*:1]; Palmitoyl = CCCCCCCCCCCCCCCC(=O)*
# Tests used:
# [1] = design: method as in 2 sources, one per row (each row's own in cited_ref): ref Venanzi et al., 20 ||| ref 20 = [20]; PMID 32780784; doi:10.1039/D0SM01011A; Venanzi M.; Savioli M.; Cimino R.; Gatto E.; Palleschi A.; Ripani G.; Cicero D.; Placidi E.; Orvieto F.; Bianchi E. A Spectroscopic and Molecular Dynamics Study on the Aggregation Process of; conditions: semaglutide without C-terminal amidation, cited from earlier work
# [2] = cited from earlier work
# [3] = Aggregation behaviour and aggregate morphology of aged samples (TEM, far-UV CD); assay type: physicochemical; conditions: 25 mM phosphate
# [4] = pH-dependent peptide solubility; assay type: physicochemical; conditions: from solid: ca. 0.5 mg lyophilized powder + 500 μL 25 mM phosphate, citrate or Tris; pH 2.5 to 8.5 in 0.5 steps; ca. 5 min, room temperature; 0.22 μm filtered; A280; soluble = concentrations above 50 μM, insoluble = not above 1 μM
# Protocol: Figure 1D illustrates the solubility of each lipidated analogue and nonlipidated GLP-1-Am at different pH values. […] Isoelectric points (pI) of the analogues were determined using isoelectric focusing gel electrophoresis (Figure S1), and the determined values are given in Figure 1D in the column next to the solubility chart. […] It is interesting to note that these both form well-defined oligomeric states (see later sections), in which it is likely that the local chemical environment of the individual ionizable groups has changed. […] Although there have been attempts to rationalize the solubility and even develop solubility predictors for peptide/protein analogs containing non-natural amino acids and amino acid derivatives, the prediction of the solubility of lipidated analogues remains challenging due to its complexity.[43],[44]
# The peptide solubility was tested in the individual buffers differing by 0.5 on the pH scale (i.e., pH 2.5, 3.0, 3.5, 4.0, ...). […] Subsequently, the concentration of the peptide was determined spectrophotometrically (Cary 60 UV–vis, Agilent Technologies) using the absorption at 280 nm and a theoretical extinction coefficient of 6990 M^–1 cm^–1 at 280 nm.
# [5] = Isoelectric point by isoelectric focusing gel electrophoresis; assay type: physicochemical; conditions: printed in Figure 1D
# Protocol: Figure 1D illustrates the solubility of each lipidated analogue and nonlipidated GLP-1-Am at different pH values. […] Isoelectric points (pI) of the analogues were determined using isoelectric focusing gel electrophoresis (Figure S1), and the determined values are given in Figure 1D in the column next to the solubility chart.
# [6] = Far-UV CD of freshly dissolved samples, α-helical content from MRE222; assay type: physicochemical; conditions: 85 μM, 25 mM phosphate pH 7.5, room temperature, estimated from MRE222
# [7] = Size-exclusion chromatography of oligomeric species; assay type: physicochemical; conditions: freshly prepared, 135 μM
# Protocol: Analytical SEC was performed on an KTA FPLC system (GE Healthcare), using a Superdex 200 Increase 10/300 column (GE Healthcare). Samples were loaded using a 200 μL loop. Prior to loading, the samples were filtered through a 0.22 μm filter (Millex, PVDF Membrane) to avoid blocking the column by large aggregates. All samples were eluted at a flow rate of 0.75 mL min^–1 at room temperature, and UV absorbance detection at 280 nm through a 0.5 cm flow cell was used. A set of globular protein standards (GE Healthcare) was used to construct a calibration curve for the column, Figure S9.
# Calibration curve for Superdex 200 Increase 10/300 column
# Globular protein standards (GE Healthcare) were used for column calibration, (Fig. S9C). The gel phase
# distribution parameter, Kav, of each protein standard was calculated as
# where Ve is an elution volume of a protein standard, V0 is the void volume of the column (determined
# used. The logarithm of the molecular weight of each protein standard was plotted against its Kav. A
# linear regression of this plot was used to determine the molecular weight of any eluting species
# For Stoke’s radius (RSt), a calibration plot of √−log(Kav) against
# RSt and a linear regression was used.
# Figure S9: Calibration of a Superdex 200 Increase 10/300 column. Calibrations on the molecular weight (A) and on the Stoke’s […]
# [8] = Sedimentation velocity analytical ultracentrifugation of oligomeric species; assay type: physicochemical; conditions: freshly prepared samples, pH 7.5; determined by both AUC and SEC
# Protocol: Sedimentation velocity experiments were performed using a Beckman Optima XL-I Analytical Ultracentrifuge equipped with an An-60 Ti rotor. Samples of 85 μM peptide concentration were freshly prepared before the measurement. After a 2 h temperature equilibration of samples in the centrifuge to 20 °C, the experiment was performed with centrifugation at 50,000 rpm. The interference sedimentation curves were collected as 150 scans (approximately 12 h run time) and fitted to a continuous c(s) distribution model implemented in the Sedfit program.[48],[52],[53] The sedimentation coefficient was corrected for the standard state of the water at 20 °C (s20,w). The molecular weight and relative amount of each detected species were calculated using the Sedfit program.
compound,measurement,setting,value
"semaglutide: marketed lipidated GLP-1 analogue, stearic diacid (C18) lipidation at Lys20",oligomeric state,[1],equilibrium of monomers and dimers
same,aggregation on incubation,"[1]; ref Venanzi et al., 20",aggregation was observed after several weeks of incubation
same,half-life in vivo,[2]; in vivo,170 h
"CCCCCCCCCCCCCCCC(=O)N[C@@H](CCC(=O)NCCCC[C@H](NC(=O)[C@@H](N)Cc1c[nH]cn1)C(=O)N[C@@H](CCC(=O)O)C(=O)NCC(=O)N[C@H](C(=O)N[C@@H](Cc1ccccc1)C(=O)N[C@H](C(=O)N[C@@H](CO)C(=O)N[C@@H](CC(=O)O)C(=O)N[C@H](C(=O)N[C@@H](CO)C(=O)N[C@@H](CO)C(=O)N[C@@H](Cc1ccc(O)cc1)C(=O)N[C@@H](CC(C)C)C(=O)N[C@@H](CCC(=O)O)C(=O)NCC(=O)N[C@@H](CCC(N)=O)C(=O)N[C@@H](C)C(=O)N[C@@H](C)C(=O)N[C@@H](CCCNC(=N)N)C(=O)N[C@@H](CCC(=O)O)C(=O)N[C@@H](Cc1ccccc1)C(=O)N[C@H](C(=O)N[C@@H](C)C(=O)N[C@@H](Cc1c[nH]c2ccccc12)C(=O)N[C@@H](CCCNC(=N)N)C(=O)N[C@H](C(=O)N[C@@H](CCCNC(=N)N)C(=O)NCC(=O)N[C@@H](CCCNC(=N)N)C(=O)NCC(N)=O)C(C)C)[C@@H](C)CC)C(C)C)[C@@H](C)O)[C@@H](C)O)C(=O)O [GLP-1-Am (2, γ-Glu-palm)] (H-HK([γGlu-Palmitoyl])EGTFTSDVSSYLEGQAAREFIAWRVRGRG-NH2)",aggregation at pH 3,[3],"rapidly aggregate forming short fibril-like species with high β-sheet content; also recorded: analogue not soluble; (at pH 3, there is rapid formation of β-structure-rich fibrils)"
CC[C@H](C)[C@H](NC(=O)[C@H](Cc1ccccc1)NC(=O)[C@H](CCC(=O)O)NC(=O)[C@H](CCCCN)NC(=O)[C@H](C)NC(=O)[C@H](C)NC(=O)[C@H](CCC(N)=O)NC(=O)CNC(=O)[C@H](CCC(=O)O)NC(=O)[C@H](CC(C)C)NC(=O)[C@H](Cc1ccc(O)cc1)NC(=O)[C@H](CO)NC(=O)[C@H](CO)NC(=O)[C@@H](NC(=O)[C@H](CC(=O)O)NC(=O)[C@H](CO)NC(=O)[C@@H](NC(=O)[C@H](Cc1ccccc1)NC(=O)[C@@H](NC(=O)CNC(=O)[C@H](CCC(=O)O)NC(=O)[C@H](C)NC(=O)[C@@H](N)Cc1cnc[nH]1)[C@@H](C)O)[C@@H](C)O)C(C)C)C(=O)N[C@@H](C)C(=O)N[C@@H](Cc1c[nH]c2ccccc12)C(=O)N[C@@H](CC(C)C)C(=O)N[C@H](C(=O)N[C@@H](CCCCN)C(=O)NCC(=O)N[C@@H](CCCNC(=N)N)C(=O)NCC(N)=O)C(C)C [GLP-1-Am],pH range of solubility,[4],soluble at all pH values tested; also recorded: soluble over the entire range studied
same,isoelectric point (pI),[5],7.4
same,α-helix content,[6],21%
same,SEC peak elution volume(s),"[7]; 25 mM phosphate pH 7.5, Superdex 200 Increase 10/300, 0.75 mL min–1, room temperature, A280",19.2 mL
same,SEC n-mer,"[7]; 25 mM phosphate pH 7.5, Superdex 200 Increase 10/300, calculated from calibration with globular protein standards",1–2
same,oligomerization,[8],"dimer and hexamer, less stable, detectable only by AUC, α-helical"
GLP-1,half-life in vivo,[2]; in vivo,circa 2 min
"liraglutide: marketed lipidated GLP-1 analogue, palmitic acid (C16) linked to Lys20 via a γ-glutamic acid spacer",half-life in vivo,[2]; pharmacokinetic data,9 to 13 h
